# Reference: patent publication US4267189A, “Method of use and composition for 1,3-dihydro-3-(2-hydroxy-2-methylpropyl)-2H-isoindol-1-one” (American Home Products Corporation, priority 1979, dated 1981)
# Columns and labels:
# [1] = test system: Gastric Acid Secretion; assay: Basal gastric acid secretion in the Shay (pylorus-ligated) rat; format: in vivo, rat (female Sprague Dawley); details: for Gastric Acid Output: mean ± S.E.; for ED50: Rattus norvegicus, gastric acid secretion; for basal gastric acid secretion (in words): rat
# Procedure: Female Sprague Dawley rats (Canadian Breeding Laboratories; 160-180 g) were fasted for 48 hours before pyloric ligation. After the first 24 hours of fasting the animals were given access to 8% sucrose in 0.2% sodium chloride for 8 hours. Water was permitted ad libitum except during the 8 hour access to sucrose and after the drug treatment. The compounds were suspended in water with the aid of one drop of Tween 80 per 7 ml for oral or intraperitoneal administration. The pylorus was ligated under ether anesthesia and the sutured incision was covered with flexible collodion to prevent the animals from ingesting adhering blood. The stomachs were lavaged with 0.9% sodium chloride until the return solution was clear. Four hours after pyloric ligation, the animals were killed with diethyl ether and the gastric contents were collected in centrifuge tubes. The amount of acid in the centrifuged gastric juice was determined by titration against 0.1 N sodium hydroxide in a direct reading pH meter of pH 7.0.
# Student's t test was used in the evaluation of the data. The ED50 's were obtained graphically by plotting the percent inhibition of gastric acid secretion versus the logarithm of the dose of the compound.
# [2] = test system: Indomethacin-Induced Ulcer Formation; assay: Indomethacin-induced ulcer formation; format: in vivo, rat (female albino Sprague-Dawley); details: for Ulcers Formed: mean ± S.E.; for ED50: Rattus norvegicus, indomethacin-induced ulcers, oral, doses in mg/kg
# Procedure: The method utilized for the production and evaluation of indomethacin-induced ulcer formation was essentially as described by Y. H. Lee et al., Arch. Int. Pharmacodyn. […] Indomethacin (20 mg/kg, i.p.) was given, the animals sacrificed by cervical dislocation 5 hr later and the number of ulcers present in the glandular portion of the stomach determined. The test compound was administered orally (0.2 ml) 1 hr before the indomethacin. The vehicle employed for the administrations was water containing Tween 80 (1 drop per 7 ml). There were 12-32 animals per group.
# [3] = test system: Cold-Restraint-Induced Ulcer Formation; assay: Cold-restraint-induced ulcer formation; format: in vivo, rat (male albino Sprague-Dawley); details: for Ulcers Formed: mean ± S.E.; for ED50: Rattus norvegicus, cold-restraint ulcers, oral, doses in mg/kg
# From the text: Int. Pharmacodyn. […] Exp. Biol. Med., 113, 998 (1963) as modified by E. C. Senay and R. J. Levine Proc. Soc. Exp. Biol. Med., 124, 1221 (1967) when administered orally or parenterally (see Examples 3 and 4).
# To assess the effects of the test compound on the development of cold-restraint-induced gastric lesions, the method of D. A. Brodie and L. S. Valitski Proc. Soc. Exp. Biol. Med., 113, 998 (1963) as modified by E. C. Senay and R. J. Levine Proc. Soc. Exp. Biol. Med., 124, 1221 (1967) was used. Food was withheld from male albino rats (165-175 g, Sprague-Dawley, Canadian Breeding Laboratories) for 24 hr but water was freely available. The test compound was administered orally (0.2 ml) to the animals (8-24 per group) 30 min before placing the animals into restrainers, the restrainer was made of plexiglass and restricted the movement of the rat to a minimum. The vehicle employed was as described above. The restrainers were placed in a cold environment (4°-7° C.) for 2 hr. The animals were sacrificed by cervical dislocation, the stomachs removed and the number of ulcers in the glandular portion of the stomach determined.
# [4] = test system: Oxotremorine-Induced Effects; assay: Anticholinergic activity: antagonism of oxotremorine-induced effects (temperature, tremor, salivation, lacrimation); format: in vivo, mice; details: for Lacrimation (L) score / Salivation (S) score / Tremor (T) score: 2=strong, 1=weak, 0=none
# Procedure: Anticholinergic activity was examined in vivo by determining the ability of the compound to antagonize oxotremorine-induced effects according to the method described by P. S. J. Spencer, Life Sci., 5, 1015 (1965). […] Rectal temperature was measured with a YSI telethermometer 402 physiological probe before administration of test compounds and oxotremorine and at 15 and 30 min after oxotremorine. At the same time the degree of tremor, salivation and lacrimation was scored as follows: 2=strong; 1=weak; 0=none.
# [5] = test system: gastric acid secretion; details: Lee et al.; cited from earlier work
# [6] = 25 mg/kg i.p., 15 min after oxotremorine
# [7] = 25 mg/kg i.p., 30 min after oxotremorine
# [8] = 100 mg/kg i.p., 15 min after oxotremorine
# [9] = 100 mg/kg i.p., 30 min after oxotremorine
# [10] = 2 mg/kg i.p., 15 min after oxotremorine
# [11] = 2 mg/kg i.p., 30 min after oxotremorine
# [12] = 5 mg/kg i.p., 15 min after oxotremorine
# [13] = 5 mg/kg i.p., 30 min after oxotremorine
smiles,measurement,setting,value
"CC(C)(O)CC1NC(=O)c2ccccc21 (centres unmarked) [Isoindol-1-one, 1,3-dihydro-3-(2-hydroxy-2-methylpropyl)-2H-isoindol-1-one]",Gastric Acid Output (% Inhibition),[1]; 12 mg/kg i.p.,18 % Inhibition
same,Gastric Acid Output,[1]; 12 mg/kg i.p.,448 ± 59 μEg/4 hr
same,Gastric Acid Output (% Inhibition),[1]; 25 mg/kg i.p.,49 % Inhibition
same,Gastric Acid Output,[1]; 25 mg/kg i.p.,275 ± 57 μEg/4 hr
same,Gastric Acid Output (% Inhibition),[1]; 25 mg/kg p.o.,48 % Inhibition
same,Gastric Acid Output,[1]; 25 mg/kg p.o.,226 ± 48 μEq/4 hr
same,Gastric Acid Output (% Inhibition),[1]; 50 mg/kg i.p.,90 % Inhibition
same,Gastric Acid Output,[1]; 50 mg/kg i.p.,56 ± 12 μEg/4 hr
same,Gastric Acid Output (% Inhibition),[1]; 50 mg/kg p.o.,65 % Inhibition
same,Gastric Acid Output,[1]; 50 mg/kg p.o.,154 ± 33 μEq/4 hr
same,Gastric Acid Output (% Inhibition),[1]; 100 mg/kg p.o.,84 % Inhibition
same,Gastric Acid Output,[1]; 100 mg/kg p.o.,71 ± 19 μEq/4 hr
same,ED50,"[1]; ip, intraperitoneal administration",25 mg/kg
same,ED50,[1]; oral administration,28 mg/kg
same,basal gastric acid secretion (in words),"[1]; listed as 1,3-Dihydro-3-(2-hydroxy-2-methylpropyl)-2H-isoindol-1-one",inhibiting basal gastric acid secretion in the rat
same,basal gastric acid secretion (in words),"[1]; listed as 1,3-dihydro-3-(2-hydroxy-2-methylpropyl)-2H-isoindol-1-one",can inhibit gastric acid secretion
same,Ulcers Formed (% Inhibition),[2]; 25 mg/kg p.o.,50 % Inhibition
same,Ulcers Formed,[2]; 25 mg/kg p.o.,4.9 ± 1.2
same,Ulcers Formed (% Inhibition),[2]; 50 mg/kg p.o.,75 % Inhibition
same,Ulcers Formed,[2]; 50 mg/kg p.o.,2.4 ± 0.7
same,Ulcers Formed (% Inhibition),[2]; 100 mg/kg p.o.,82 % Inhibition
same,Ulcers Formed,[2]; 100 mg/kg p.o.,1.8 ± 0.6
same,ED50,[2],22 mg/kg
same,indomethacin-induced ulcer formation (in words),"[2]; rat, orally or parenterally",inhibiting indomethacin-induced ulcer formation in the rat
same,Ulcers Formed (% Inhibition),[3]; 50 mg/kg p.o.,40 % Inhibition
same,Ulcers Formed,[3]; 50 mg/kg p.o.,3.9 ± 1.2
same,Ulcers Formed (% Inhibition),[3]; 100 mg/kg p.o.,55 % Inhibition
same,Ulcers Formed,[3]; 100 mg/kg p.o.,2.9 ± 0.5
same,Ulcers Formed (% Inhibition),[3]; 200 mg/kg p.o.,69 % Inhibition
same,Ulcers Formed,[3]; 200 mg/kg p.o.,2.0 ± 0.8
same,ED50,[3],80 mg/kg
same,cold-restraint-induced ulcer formation (in words),"[3]; rat, orally or parenterally",cold-resistant-induced ulcer formation in the rat
same,Temperature Before Oxotremorine,[4]; 25 mg/kg i.p.,36.7 ± 0.2 °C
same,Temperature after Oxotremorine,"[4]; 25 mg/kg i.p., 15 min",31.4 ± 0.2 °C
same,Lacrimation (L) score,[4]; [6],2.0
same,Salivation (S) score,[4]; [6],2.0
same,Tremor (T) score,[4]; [6],2.0
same,Temperature after Oxotremorine,"[4]; 25 mg/kg i.p., 30 min",29.2 ± 0.2 °C
same,Lacrimation (L) score,[4]; [7],2.0
same,Salivation (S) score,[4]; [7],2.0
same,Tremor (T) score,[4]; [7],2.0
same,Temperature Before Oxotremorine,[4]; 100 mg/kg i.p.,32.8 ± 0.2 °C
same,Temperature after Oxotremorine,"[4]; 100 mg/kg i.p., 15 min",31.2 ± 0.1 °C
same,Lacrimation (L) score,[4]; [8],0.7
same,Salivation (S) score,[4]; [8],2.0
same,Tremor (T) score,[4]; [8],2.0
same,Temperature after Oxotremorine,"[4]; 100 mg/kg i.p., 30 min",30.5 ± 0.2 °C
same,Lacrimation (L) score,[4]; [9],1.0
same,Salivation (S) score,[4]; [9],2.0
same,Tremor (T) score,[4]; [9],2.0
same,anticholinergic activity (in words),[4]; see Example 5,does not exhibit appreciable anticholineric activity
"CN1[C@@H]2CC[C@H]1C[C@@H](OC(=O)C(CO)c1ccccc1)C2 (some centres unmarked) [Atropine, reference compound]",Ulcers Formed (% Inhibition),[2]; 1 mg/kg p.o.,47 % Inhibition
same,Ulcers Formed,[2]; 1 mg/kg p.o.,5.2 ± 1.5
same,Ulcers Formed (% Inhibition),[2]; 2 mg/kg p.o.,85 % Inhibition
same,Ulcers Formed,[2]; 2 mg/kg p.o.,1.5 ± 0.8
same,ED50,[2],1.1 mg/kg
same,Temperature Before Oxotremorine,[4]; 2 mg/kg i.p.,37.6 ± 0.2 °C
same,Temperature after Oxotremorine,"[4]; 2 mg/kg i.p., 15 min",36.7 ± 0.4 °C
same,Lacrimation (L) score,[4]; [10],0
same,Salivation (S) score,[4]; [10],0
same,Tremor (T) score,[4]; [10],0
same,Temperature after Oxotremorine,"[4]; 2 mg/kg i.p., 30 min",35.7 ± 0.4 °C
same,Lacrimation (L) score,[4]; [11],0
same,Salivation (S) score,[4]; [11],0
same,Tremor (T) score,[4]; [11],0
same,Temperature Before Oxotremorine,[4]; 5 mg/kg i.p.,37.2 ± 0.3 °C
same,Temperature after Oxotremorine,"[4]; 5 mg/kg i.p., 15 min",36.9 ± 0.2 °C
same,Lacrimation (L) score,[4]; [12],0
same,Salivation (S) score,[4]; [12],0
same,Tremor (T) score,[4]; [12],0.16
same,Temperature after Oxotremorine,"[4]; 5 mg/kg i.p., 30 min",36.9 ± 0.3 °C
same,Lacrimation (L) score,[4]; [13],0.16
same,Salivation (S) score,[4]; [13],0
same,Tremor (T) score,[4]; [13],0
"CN(C)CCCN1c2ccccc2CCc2ccccc21 [Imipramine, reference compound]",Ulcers Formed (% Inhibition),[3]; 1.25 mg/kg p.o.,37 % Inhibition
same,Ulcers Formed,[3]; 1.25 mg/kg p.o.,4.1 ± 1.5
same,Ulcers Formed (% Inhibition),[3]; 2.5 mg/kg p.o.,68 % Inhibition
same,Ulcers Formed,[3]; 2.5 mg/kg p.o.,2.1 ± 0.8
same,Ulcers Formed (% Inhibition),[3]; 5 mg/kg p.o.,81 % Inhibition
same,Ulcers Formed,[3]; 5 mg/kg p.o.,1.2 ± 0.4
same,ED50,[3],1.7 mg/kg
COc1ccc2c(c1)c(CC(=O)O)c(C)n2C(=O)c1ccc(Cl)cc1 [Indomethacin],effect on gastric acid secretion (in words),[5],no effect on gastric acid secretion
same,ulcer formation (in words),[5],induces ulcer formation
